According to ChEMBL document CHEMBL1681717, “Design and synthesis of a novel, orally active, brain penetrant, tri-substituted thiophene based JNK inhibitor” (Bioorg Med Chem Lett, 2011):

Experiments:
[1] = target: T1, Mitogen-activated protein kinase 10 (Homo sapiens, UniProt P53779); test: Inhibition of recombinant JNK3 after 60 mins by TR-FRET assay
[2] = target: Mitogen-activated protein kinase 9 (Homo sapiens, UniProt P45984); test: Inhibition of recombinant JNK2 after 60 mins by TR-FRET assay
[3] = target: Mitogen-activated protein kinase 8 (Homo sapiens, UniProt P45983); test: Inhibition of recombinant JNK1 after 60 mins by TR-FRET assay
Sequence of Mitogen-activated protein kinase 8 (P45983 whole entry): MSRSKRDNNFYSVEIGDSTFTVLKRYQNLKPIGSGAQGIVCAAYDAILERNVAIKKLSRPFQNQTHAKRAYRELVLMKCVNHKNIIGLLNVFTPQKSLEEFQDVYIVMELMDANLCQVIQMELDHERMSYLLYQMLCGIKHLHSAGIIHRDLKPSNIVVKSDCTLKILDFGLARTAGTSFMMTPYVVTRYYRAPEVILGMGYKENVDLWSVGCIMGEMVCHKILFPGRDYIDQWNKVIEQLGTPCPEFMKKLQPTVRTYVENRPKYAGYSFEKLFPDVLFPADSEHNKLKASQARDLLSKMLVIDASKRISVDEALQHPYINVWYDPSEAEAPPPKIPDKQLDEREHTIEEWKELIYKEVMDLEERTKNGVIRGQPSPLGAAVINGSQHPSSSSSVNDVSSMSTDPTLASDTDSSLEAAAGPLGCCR

[4] = target: Mitogen-activated protein kinase 14 (Homo sapiens, UniProt Q16539); test: Inhibition of recombinant p38alpha after 60 mins by TR-FRET assay
[5] = target: T2, Mitogen-activated protein kinase 1 (Homo sapiens, UniProt P28482); test: Inhibition of recombinant ERK2 after 60 mins by TR-FRET assay
T2 sequence (P28482 whole entry): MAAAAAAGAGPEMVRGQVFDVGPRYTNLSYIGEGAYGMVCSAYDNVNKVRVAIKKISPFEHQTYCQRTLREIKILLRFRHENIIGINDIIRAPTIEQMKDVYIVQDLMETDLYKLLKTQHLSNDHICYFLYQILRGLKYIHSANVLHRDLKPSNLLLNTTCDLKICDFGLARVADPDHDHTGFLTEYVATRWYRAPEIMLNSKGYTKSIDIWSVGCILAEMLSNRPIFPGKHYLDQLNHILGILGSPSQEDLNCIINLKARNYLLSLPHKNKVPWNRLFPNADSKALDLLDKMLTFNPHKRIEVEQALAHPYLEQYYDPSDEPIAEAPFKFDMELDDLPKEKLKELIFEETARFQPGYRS

MDR1 [6] = test: Apparent permeability of the compound from apical to basolateral direction in MDCK2 cells expressing MDR1; type: ADME, cell-based, Canis lupus familiaris, MDCK-II; conditions: dog, MDCK-MDR1
MDR1 [7] = test: Efflux ratio of permeability from basolateral to apical side over apical to basolateral side in MDCK2 cells expressing MDR1; type: ADME, cell-based, Canis lupus familiaris, MDCK-II; conditions: dog, MDCK-MDR1
[8] = Oxidative metabolic stability in mouse liver microsomes assessed as compound remaining at 5 uM after 120 mins; type: ADME, Microsome; conditions: read-out: Stability
[9] = Oxidative metabolic stability in human liver microsomes assessed as compound remaining at 5 uM after 120 mins; type: ADME, Microsome; conditions: read-out: Stability
Mus musculus = test: Inhibition of kainic acid-induced JNK activation in FVB mouse hippocampus assessed as reduction of phosphorylated c-jun level at 300 mg/kg, po administered 1 hr before kainic acid challenge measured after 4 hrs; type: functional
[10] = target: Cyclin-dependent kinase 5/CDK5 activator 1 (Homo sapiens) (UniProt Q00535+Q15078); test: Inhibition of CDK5/p25 at 10 uM; type: protein-complex assay
[11] = target: Cyclin-dependent kinase 2/cyclin A (Homo sapiens) (UniProt P24941+P20248+P78396); test: Inhibition of CDK2/cyclin A at 10 uM; type: protein-complex assay
[12] = target: Cyclin-dependent kinase 1/cyclin B (Homo sapiens) (UniProt P06493+P14635+Q8WWL7+O95067); test: Inhibition of CDK1/cyclin B at 10 uM; type: protein-complex assay
[13] = target: Calcium/calmodulin-dependent protein kinase type II subunit alpha (Homo sapiens) (UniProt Q9UQM7); test: Inhibition of CAMK2A at 10 uM
[14] = target: Aurora kinase A (Homo sapiens) (UniProt O14965); test: Inhibition of Aurora A at 10 uM
Sequence of Aurora kinase A (Homo sapiens) (O14965 whole entry): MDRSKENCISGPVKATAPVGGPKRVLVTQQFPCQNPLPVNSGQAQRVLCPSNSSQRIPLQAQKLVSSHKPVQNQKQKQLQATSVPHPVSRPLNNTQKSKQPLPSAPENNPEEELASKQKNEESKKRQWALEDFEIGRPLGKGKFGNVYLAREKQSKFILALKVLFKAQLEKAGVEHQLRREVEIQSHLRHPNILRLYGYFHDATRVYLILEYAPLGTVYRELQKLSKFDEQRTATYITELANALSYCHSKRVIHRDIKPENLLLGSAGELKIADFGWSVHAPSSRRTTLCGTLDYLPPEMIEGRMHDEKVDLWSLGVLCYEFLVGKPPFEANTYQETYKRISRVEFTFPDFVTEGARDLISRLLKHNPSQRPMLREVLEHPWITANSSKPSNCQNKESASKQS

[15] = target: RAC-alpha serine/threonine-protein kinase (Homo sapiens) (UniProt P31749); test: Inhibition of AKT1 at 10 uM
[16] = target: Tyrosine-protein kinase ABL1 (Homo sapiens) (UniProt P00519); test: Inhibition of ABL1 at 10 uM
[17] = target: Serine/threonine-protein kinase Chk1 (Homo sapiens) (UniProt O14757); test: Inhibition of CHEK1 at 10 uM
[18] = target: Dual specificity protein kinase CLK1 (Homo sapiens) (UniProt P49759); test: Inhibition of CLK1 at 10 uM
[19] = target: Macrophage colony-stimulating factor 1 receptor (Homo sapiens) (UniProt P07333); test: Inhibition of CSF1R at 10 uM
[20] = target: Dual specificity tyrosine-phosphorylation-regulated kinase 1B (Homo sapiens) (UniProt Q9Y463); test: Inhibition of DYRK1B at 10 uM
Sequence of Dual specificity tyrosine-phosphorylation-regulated kinase 1B (Homo sapiens) (Q9Y463 whole entry, looked up): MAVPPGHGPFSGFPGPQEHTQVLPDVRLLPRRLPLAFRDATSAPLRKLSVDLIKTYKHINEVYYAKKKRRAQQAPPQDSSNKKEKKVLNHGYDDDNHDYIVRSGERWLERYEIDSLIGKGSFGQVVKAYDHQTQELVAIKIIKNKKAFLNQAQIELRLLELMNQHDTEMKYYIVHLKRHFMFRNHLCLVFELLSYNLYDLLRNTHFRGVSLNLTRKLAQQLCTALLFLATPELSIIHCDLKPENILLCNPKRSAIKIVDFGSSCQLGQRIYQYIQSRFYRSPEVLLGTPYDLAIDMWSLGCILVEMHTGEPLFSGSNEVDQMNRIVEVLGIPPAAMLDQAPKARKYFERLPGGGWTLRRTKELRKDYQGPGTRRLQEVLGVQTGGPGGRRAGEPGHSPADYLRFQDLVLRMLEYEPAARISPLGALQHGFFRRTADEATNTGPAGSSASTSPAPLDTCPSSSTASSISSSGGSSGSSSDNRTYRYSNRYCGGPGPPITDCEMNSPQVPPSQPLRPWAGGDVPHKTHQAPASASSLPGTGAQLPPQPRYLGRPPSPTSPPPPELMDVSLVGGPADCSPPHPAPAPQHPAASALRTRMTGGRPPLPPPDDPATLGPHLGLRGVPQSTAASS

[21] = target: Receptor tyrosine-protein kinase erbB-4 (Homo sapiens) (UniProt Q15303); test: Inhibition of ERBB4 at 10 uM
[22] = target: Receptor-type tyrosine-protein kinase FLT3 (Homo sapiens) (UniProt P36888); test: Inhibition of FLT3 at 10 uM
[23] = target: Glycogen synthase kinase-3 beta (Homo sapiens) (UniProt P49841); test: Inhibition of GSK3B at 10 uM
[24] = target: Insulin receptor (Homo sapiens) (UniProt P06213); test: Inhibition of INSR at 10 uM
[25] = target: Tyrosine-protein kinase JAK1 (Homo sapiens) (UniProt P23458); test: Inhibition of JAK1 at 10 uM
[26] = target: Tyrosine-protein kinase Lck (Homo sapiens) (UniProt P06239); test: Inhibition of LCK at 10 uM
[27] = target: Leucine-rich repeat serine/threonine-protein kinase 2 (Homo sapiens) (UniProt Q5S007); test: Inhibition of LRRK2 at 10 uM
[28] = target: T2, Mitogen-activated protein kinase 1; test: Inhibition of MAPK1 at 10 uM
[29] = target: Serine/threonine-protein kinase MARK2 (Homo sapiens) (UniProt Q7KZI7); test: Inhibition of MARK2 at 10 uM
[30] = target: Serine/threonine-protein kinase PAK 4 (Homo sapiens) (UniProt O96013); test: Inhibition of PAK4 at 10 uM
[31] = target: Platelet-derived growth factor receptor alpha (Homo sapiens) (UniProt P16234); test: Inhibition of PDGFRA at 10 uM
Sequence of Platelet-derived growth factor receptor alpha (Homo sapiens) (P16234 whole entry): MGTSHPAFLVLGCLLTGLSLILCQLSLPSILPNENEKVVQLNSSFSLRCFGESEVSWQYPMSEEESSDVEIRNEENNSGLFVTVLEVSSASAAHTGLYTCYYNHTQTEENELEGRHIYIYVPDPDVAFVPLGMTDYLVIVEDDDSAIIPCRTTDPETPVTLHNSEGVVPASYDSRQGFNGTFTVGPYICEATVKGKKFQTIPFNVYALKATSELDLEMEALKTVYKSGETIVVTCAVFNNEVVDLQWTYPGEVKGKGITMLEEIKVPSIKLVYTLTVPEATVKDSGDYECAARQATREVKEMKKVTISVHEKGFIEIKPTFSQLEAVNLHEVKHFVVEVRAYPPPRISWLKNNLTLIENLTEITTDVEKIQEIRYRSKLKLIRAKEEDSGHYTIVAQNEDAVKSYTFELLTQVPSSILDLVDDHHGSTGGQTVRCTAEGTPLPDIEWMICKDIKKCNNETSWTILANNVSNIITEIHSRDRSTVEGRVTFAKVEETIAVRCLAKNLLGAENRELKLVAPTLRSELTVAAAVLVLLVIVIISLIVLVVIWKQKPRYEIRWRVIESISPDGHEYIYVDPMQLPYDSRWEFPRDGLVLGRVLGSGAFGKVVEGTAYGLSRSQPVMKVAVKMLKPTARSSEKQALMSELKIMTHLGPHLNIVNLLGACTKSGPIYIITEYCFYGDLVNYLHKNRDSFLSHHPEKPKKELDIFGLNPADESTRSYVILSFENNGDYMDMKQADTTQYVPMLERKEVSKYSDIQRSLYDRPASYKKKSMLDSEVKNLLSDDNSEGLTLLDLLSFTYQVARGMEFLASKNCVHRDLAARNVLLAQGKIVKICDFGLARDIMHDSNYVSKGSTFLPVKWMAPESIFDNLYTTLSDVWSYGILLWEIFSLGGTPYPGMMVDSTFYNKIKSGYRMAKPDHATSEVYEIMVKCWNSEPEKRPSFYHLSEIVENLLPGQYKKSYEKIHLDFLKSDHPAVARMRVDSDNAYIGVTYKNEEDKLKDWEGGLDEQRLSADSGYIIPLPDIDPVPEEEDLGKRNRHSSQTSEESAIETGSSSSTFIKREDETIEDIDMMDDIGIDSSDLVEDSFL

[32] = target: PI3-kinase p110-alpha/p85-alpha (Homo sapiens) (UniProt P27986+P42336); test: Inhibition of PIK3CA/PIK3R1 at 10 uM; type: protein-complex assay
[33] = target: Serine/threonine-protein kinase PLK1 (Homo sapiens) (UniProt P53350); test: Inhibition of PLK1 at 10 uM
[34] = target: Serine/threonine-protein kinase PLK2 (Homo sapiens) (UniProt Q9NYY3); test: Inhibition of PLK2 at 10 uM
[35] = target: Serine/threonine-protein kinase PLK3 (Homo sapiens) (UniProt Q9H4B4); test: Inhibition of PLK3 at 10 uM
[36] = target: cAMP-dependent protein kinase catalytic subunit alpha (Homo sapiens) (UniProt P17612); test: Inhibition of PRKACA at 10 uM
[37] = target: Protein kinase C beta type (Homo sapiens) (UniProt P05771); test: Inhibition of PRKCB1 at 10 uM
[38] = target: Protein-tyrosine kinase 2-beta (Homo sapiens) (UniProt Q14289); test: Inhibition of PTK2B at 10 uM
[39] = test system: RAF proto-oncogene serine/threonine-protein kinase (Homo sapiens), P04049 [Y340D,Y341D]; test: Inhibition of RAF1 Y340D, Y341D mutant at 10 uM
[40] = target: Proto-oncogene tyrosine-protein kinase receptor Ret (Homo sapiens) (UniProt P07949); test: Inhibition of RET at 10 uM
[41] = target: Receptor-interacting serine/threonine-protein kinase 2 (Homo sapiens) (UniProt O43353); test: Inhibition of RIPK2 at 10 uM
[42] = target: Rho-associated protein kinase 2 (Homo sapiens) (UniProt O75116); test: Inhibition of ROCK2 at 10 uM
Sequence of Rho-associated protein kinase 2 (Homo sapiens) (O75116 whole entry, looked up): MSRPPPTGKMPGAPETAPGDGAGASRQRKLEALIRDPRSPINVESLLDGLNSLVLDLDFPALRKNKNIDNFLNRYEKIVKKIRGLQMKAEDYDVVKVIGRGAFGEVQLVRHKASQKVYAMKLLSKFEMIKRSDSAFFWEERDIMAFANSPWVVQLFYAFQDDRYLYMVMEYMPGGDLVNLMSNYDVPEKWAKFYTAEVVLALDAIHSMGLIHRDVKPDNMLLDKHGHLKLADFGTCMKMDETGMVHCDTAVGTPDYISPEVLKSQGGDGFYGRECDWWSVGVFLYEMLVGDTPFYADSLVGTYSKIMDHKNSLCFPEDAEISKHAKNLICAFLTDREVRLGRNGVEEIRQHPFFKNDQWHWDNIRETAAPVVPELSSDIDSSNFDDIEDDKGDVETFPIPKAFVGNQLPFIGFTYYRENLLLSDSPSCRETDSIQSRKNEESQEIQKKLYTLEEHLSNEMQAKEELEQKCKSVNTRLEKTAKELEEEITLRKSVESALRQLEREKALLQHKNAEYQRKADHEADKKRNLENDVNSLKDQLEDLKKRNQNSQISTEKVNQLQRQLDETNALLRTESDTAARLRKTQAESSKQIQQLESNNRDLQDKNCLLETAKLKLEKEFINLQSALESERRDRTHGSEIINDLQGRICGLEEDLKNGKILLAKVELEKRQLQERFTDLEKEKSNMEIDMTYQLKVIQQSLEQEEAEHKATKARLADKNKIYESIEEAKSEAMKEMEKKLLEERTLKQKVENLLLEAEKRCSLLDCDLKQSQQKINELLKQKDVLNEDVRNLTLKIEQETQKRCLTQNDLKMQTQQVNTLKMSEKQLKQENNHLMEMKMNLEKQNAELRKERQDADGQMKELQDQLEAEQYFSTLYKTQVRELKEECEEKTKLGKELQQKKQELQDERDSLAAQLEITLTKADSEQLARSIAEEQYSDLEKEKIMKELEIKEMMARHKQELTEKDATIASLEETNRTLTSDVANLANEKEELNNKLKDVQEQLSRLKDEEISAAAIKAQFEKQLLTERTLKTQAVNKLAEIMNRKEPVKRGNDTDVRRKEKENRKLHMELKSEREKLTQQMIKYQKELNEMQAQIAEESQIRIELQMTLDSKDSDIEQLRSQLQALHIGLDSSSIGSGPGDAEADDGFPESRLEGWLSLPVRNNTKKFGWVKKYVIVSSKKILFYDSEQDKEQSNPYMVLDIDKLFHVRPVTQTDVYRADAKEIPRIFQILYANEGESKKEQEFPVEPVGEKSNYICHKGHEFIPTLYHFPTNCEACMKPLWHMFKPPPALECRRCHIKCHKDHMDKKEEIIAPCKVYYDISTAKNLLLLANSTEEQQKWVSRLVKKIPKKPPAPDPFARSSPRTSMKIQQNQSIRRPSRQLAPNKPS

[43] = target: Serine/threonine-protein kinase 16 (Homo sapiens) (UniProt O75716); test: Inhibition of STK16 at 10 uM
[44] = target: Serine/threonine-protein kinase 3 (Homo sapiens) (UniProt Q13188); test: Inhibition of STK3 at 10 uM
[45] = target: Tyrosine-protein kinase SYK (Homo sapiens) (UniProt P43405); test: Inhibition of SYK at 10 uM
[46] = target: Dual specificity protein kinase TTK (Homo sapiens) (UniProt P33981); test: Inhibition of TTK at 10 uM
[47] = target: T1, Mitogen-activated protein kinase 10; conditions: 10 uM
Description: Inhibition of MAPK10 at 10 uM

T1 sequence (P53779 whole entry): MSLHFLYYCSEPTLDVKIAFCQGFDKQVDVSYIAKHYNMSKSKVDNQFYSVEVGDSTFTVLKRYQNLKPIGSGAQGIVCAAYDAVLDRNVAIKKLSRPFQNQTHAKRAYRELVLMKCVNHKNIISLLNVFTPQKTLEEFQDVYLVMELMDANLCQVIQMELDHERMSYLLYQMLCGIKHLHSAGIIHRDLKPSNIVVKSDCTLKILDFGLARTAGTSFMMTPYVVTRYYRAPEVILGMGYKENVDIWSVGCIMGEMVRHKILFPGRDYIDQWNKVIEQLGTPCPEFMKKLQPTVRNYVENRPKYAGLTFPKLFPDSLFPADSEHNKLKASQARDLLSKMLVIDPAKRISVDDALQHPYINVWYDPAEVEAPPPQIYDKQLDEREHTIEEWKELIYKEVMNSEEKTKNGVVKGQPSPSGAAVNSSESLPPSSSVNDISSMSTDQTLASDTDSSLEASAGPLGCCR

In the case of `O=C(Cc1cccc2cnccc12)Nc1scc(Cl)c1-c1ncn[nH]1`, the IC50 [1] is reported as 11 nM, the IC50 [2] is reported as 43 nM and the IC50 [3] is reported as 14 nM. For the same compound, the IC50 [4] was greater than 50000 nM, the IC50 [5] was greater than 50000 nM and the Papp A→B (MDR1 [6]) was 27 ×10⁻⁶ cm/s. It also gave an efflux ratio (MDR1 [7]) of 1.6, a remaining at 2 h, 5 µM [8] of 29% and a remaining at 2 h, 5 µM [9] of 50%. For the same compound, the inhibition in vivo at 300 mg/kg (Mus musculus) was 51%, the inhibition [10] was 19% and the inhibition [11] was 19%. For the same compound, the inhibition [12] was 14%, the inhibition [13] was 6% and the inhibition [14] was 31%. The inhibition [15] was 4%, the inhibition [16] was 2% and the inhibition [17] was 5%. For the same compound, the inhibition [18] was 7%, the inhibition [19] was 5% and the inhibition [20] was 29%. For the same compound, the inhibition [21] was -1%, the inhibition [22] was 12% and the inhibition [23] was 25%. The inhibition [24] was -2%, the inhibition [25] was 1% and the inhibition [26] was 11%. It also gave an inhibition [27] of 15%, an inhibition [28] of 3% and an inhibition [29] of 9%. It also gave an inhibition [30] of 1%, an inhibition [31] of 2% and an inhibition [32] of 13%. The inhibition [33] was 5%, the inhibition [34] was 1% and the inhibition [35] was -1%. For the same compound, the inhibition [36] was 3%, the inhibition [37] was 3% and the inhibition [38] was -5%. It also gave an inhibition [39] of 19%, an inhibition [40] of 16% and an inhibition [41] of 13%. The inhibition [42] was 9%, the inhibition [43] was 29% and the inhibition [44] was 3%. It also gave an inhibition [45] of 19%, an inhibition [46] greater than 50% and an inhibition [47] of 96%.
